Measurements published in EP4667458A1 (Kanaph Therapeutics Inc., priority 2023, dated 2024).

target: T1, SOS1 (Homo sapiens, UniProt Q07889); assay: SOS-catalyzed nucleotide exchange assay (HTRF, SOS1-mediated GTP loading of KRAS G12D); type: biochemical; settings: GST-KRAS G12D, HIS-SOS1cat, EDA-GTP-DY-647P1; compound 128 pM to 10 µM; read-out: SOS-catalyzed nucleotide exchange assay (IC50 range, Grade)
T1 construct: adding equal amounts of HIS-SOS1cat (160 nM; Cytoskeleton, US); His; purchased Cytoskeleton, US
T1 sequence (Q07889 564-1049 limits assumed): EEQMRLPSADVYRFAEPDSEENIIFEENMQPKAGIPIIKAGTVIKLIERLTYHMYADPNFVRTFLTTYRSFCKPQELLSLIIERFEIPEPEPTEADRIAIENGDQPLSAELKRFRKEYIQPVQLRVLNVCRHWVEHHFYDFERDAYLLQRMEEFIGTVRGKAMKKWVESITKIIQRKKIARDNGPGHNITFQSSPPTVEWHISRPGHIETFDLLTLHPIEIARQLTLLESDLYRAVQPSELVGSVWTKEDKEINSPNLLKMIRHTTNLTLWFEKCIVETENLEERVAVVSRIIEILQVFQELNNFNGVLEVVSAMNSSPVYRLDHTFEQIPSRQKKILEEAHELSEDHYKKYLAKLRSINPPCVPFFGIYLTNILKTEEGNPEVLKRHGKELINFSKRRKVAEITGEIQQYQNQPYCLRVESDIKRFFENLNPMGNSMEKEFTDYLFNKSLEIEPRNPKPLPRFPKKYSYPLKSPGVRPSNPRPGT
Protocol: SOS1 activity was measured by SOS1-mediated GTP loading quantification of KRAS^G12D. GTP-loaded KRAS^G12D was detected by HTRF (Homogeneous Time Resolved Fluorescence) using anti-GST terbium (Cisbio, France) as a donor and a fluorescence GTP analogue (EDA-GTP-DY-647P1, [DY-647P1-labeled 2'/3'-O-(2-aminoethyl-carbamoyl)guanosine-5'-triphosphate (Jena bioscience, Germany)]) as an acceptor.
Assay buffer was composed of 10 mM HEPES pH 7.4, 150 mM NaCl, 5 mM MgCl2, 1 mM DTT, 0.05% BSA Fraction V pH 7.0 (Sigma) and 0.0025% (v/v) Igepal (Sigma). KRAS^G12D working solution was prepared by adding equal amounts of GST-KRAS^G12D (100 nM) and anti-GST-terbium (2 nM; Cisbio, France) to the assay buffer and incubating on ice for 10 minutes. SOS1cat working solution was prepared by adding equal amounts of HIS-SOS1cat (160 nM; Cytoskeleton, US) and EDA-GTP-DY-647P1 (200 nM; Jena bioscience, Germany) to the assay buffer. Control solution was prepared by adding equal volumes of EDA-GTP-DY-647P1 and the assay buffer for normalization control to exclude GEF-independent GTP loading and background signals. In order to induce a reaction, 5 µL of the SOS1cat working solution or the control solution was injected into each well. 5 µL of a compound having various concentrations from 128 pM to 10 µM was added to wells containing the SOS1cat working solution and incubated at room temperature for 10 minutes to bind to SOS1.
10 µL of the KRAS^G12D solution was added to each well and incubated for 30 minutes at room temperature while shaking. HTRF was measured using a Thermo Varioskan (excitation 334 nm, emission 665 nm). The IC50 of each inhibitor was analyzed using Graphad Prism.
The SOS1 inhibitory activity of the Example compounds measured by the above method was evaluated based on the following criteria, and the results are shown in Table 29.

IC50 [nM]	SMILES
< 1000	C[C@@H](NC(=O)c1ccc(=O)n(C2=CCCCC2)n1)c1cc(N)cc(C(F)(F)F)c1 [Example 65, N-[(1R)-1-[3-amino-5-(trifluoromethyl)phenyl]ethyl]-1-(cyclohex-1-en-1-yl)-6-oxo-1,6-dihydropyridazine-3-carboxamide]
1000 to 10000	C[C@@H](NC(=O)c1ccc(=O)n([C@H]2CCCC[C@@H]2O)n1)c1cc(N)cc(C(F)(F)F)c1 [Example 125, N-((R)-1-(3-amino-5-(trifluoromethyl)phenyl)ethyl)-1-((1S,2S)-2-hydroxycyclohexyl)-6-oxo-1,6-dihydropyridazine-3-carboxamide]
1000 to 10000	C[C@@H](NC(=O)c1cn(-c2ccccc2)c(=O)cn1)c1cc(N)cc(C(F)(F)F)c1 [Example 63, N-[(1R)-1-[3-amino-5-(trifluoromethyl)phenyl]ethyl]-5-oxo-4-phenyl-pyrazine-2-carboxamide]
1000 to 10000	CC(=O)N1CCC(n2nc(C(=O)N[C@H](C)c3cccc(Cl)c3)ccc2=O)CC1 [Example 18, 1-(1-acetyl-4-piperidyl)-N-[(1R)-1-(3-chlorophenyl)ethyl]-6-oxo-pyridazine-3-carboxamide]
< 1000	C[C@@H](NC(=O)c1ccc(=O)n(-c2cccc3ccccc23)n1)c1cc(N)cc(C(F)(F)F)c1 [Example 25, (R)-N-(1-(3-amino-5-(trifluoromethyl)phenyl)ethyl)-1-(naphthalen-1-yl)-6-oxo-1,6-dihydropyridazine-3-carboxamide]
> 10000	Cc1ccc([C@@H](C)NC(=O)c2ccc(=O)n(-c3ccccc3)n2)cc1 [Example 7, (R)-6-oxo-1-phenyl-N-(1-(p-tolyl)ethyl)-1,6-dihydropyridazine-3-carboxamide]
1000 to 10000	CC(=O)Nc1cccc(-n2nc(C(=O)N[C@H](C)c3cccc(C(F)(F)CO)c3)ccc2=O)c1 [Example 53, 1-(3-acetamidophenyl)-N-[(1R)-1-[3-(1,1-difluoro-2-hydroxyethyl)phenyl]ethyl]-6-oxo-pyridazine-3-carboxamide]
< 1000	C[C@@H](NC(=O)c1ccc(=O)n(-c2ccccc2O)n1)c1cc(N)cc(C(F)(F)F)c1 [Example 47, N-[(1R)-1-[3-amino-5-(trifluoromethyl)phenyl]ethyl]-1-(2-hydroxyphenyl)-6-oxo-pyridazine-3-carboxamide]
< 1000	C[C@@H](NC(=O)c1ccc(=O)n(-c2ccncc2)c1)c1cc(N)cc(C(F)(F)F)c1 [Example 73, N-[(1R)-1-[3-amino-5-(trifluoromethyl)phenyl]ethyl]-2-oxo-2H-[1,4'-bipyridine]-5-carboxamide]
< 1000	C[C@@H](NC(=O)c1ccc(=O)n(-c2cccc(C(=O)N3CCOCC3)c2)c1)c1cc(N)cc(C(F)(F)F)c1 [Example 75, N-[(1R)-1-[3-amino-5-(trifluoromethyl)phenyl]ethyl]-1-[3-(morpholine-4-carbonyl)phenyl]-6-oxo-1,6-dihydropyridine-3-carboxamide]

target: T2, KRAS^G12C::SOS1 (Homo sapiens, UniProt Q07889); assay: KRAS G12C::SOS1 protein-protein interaction (PPI) inhibition assay (HTRF binding kit); settings: not given
T2 sequence (Q07889 1-1333): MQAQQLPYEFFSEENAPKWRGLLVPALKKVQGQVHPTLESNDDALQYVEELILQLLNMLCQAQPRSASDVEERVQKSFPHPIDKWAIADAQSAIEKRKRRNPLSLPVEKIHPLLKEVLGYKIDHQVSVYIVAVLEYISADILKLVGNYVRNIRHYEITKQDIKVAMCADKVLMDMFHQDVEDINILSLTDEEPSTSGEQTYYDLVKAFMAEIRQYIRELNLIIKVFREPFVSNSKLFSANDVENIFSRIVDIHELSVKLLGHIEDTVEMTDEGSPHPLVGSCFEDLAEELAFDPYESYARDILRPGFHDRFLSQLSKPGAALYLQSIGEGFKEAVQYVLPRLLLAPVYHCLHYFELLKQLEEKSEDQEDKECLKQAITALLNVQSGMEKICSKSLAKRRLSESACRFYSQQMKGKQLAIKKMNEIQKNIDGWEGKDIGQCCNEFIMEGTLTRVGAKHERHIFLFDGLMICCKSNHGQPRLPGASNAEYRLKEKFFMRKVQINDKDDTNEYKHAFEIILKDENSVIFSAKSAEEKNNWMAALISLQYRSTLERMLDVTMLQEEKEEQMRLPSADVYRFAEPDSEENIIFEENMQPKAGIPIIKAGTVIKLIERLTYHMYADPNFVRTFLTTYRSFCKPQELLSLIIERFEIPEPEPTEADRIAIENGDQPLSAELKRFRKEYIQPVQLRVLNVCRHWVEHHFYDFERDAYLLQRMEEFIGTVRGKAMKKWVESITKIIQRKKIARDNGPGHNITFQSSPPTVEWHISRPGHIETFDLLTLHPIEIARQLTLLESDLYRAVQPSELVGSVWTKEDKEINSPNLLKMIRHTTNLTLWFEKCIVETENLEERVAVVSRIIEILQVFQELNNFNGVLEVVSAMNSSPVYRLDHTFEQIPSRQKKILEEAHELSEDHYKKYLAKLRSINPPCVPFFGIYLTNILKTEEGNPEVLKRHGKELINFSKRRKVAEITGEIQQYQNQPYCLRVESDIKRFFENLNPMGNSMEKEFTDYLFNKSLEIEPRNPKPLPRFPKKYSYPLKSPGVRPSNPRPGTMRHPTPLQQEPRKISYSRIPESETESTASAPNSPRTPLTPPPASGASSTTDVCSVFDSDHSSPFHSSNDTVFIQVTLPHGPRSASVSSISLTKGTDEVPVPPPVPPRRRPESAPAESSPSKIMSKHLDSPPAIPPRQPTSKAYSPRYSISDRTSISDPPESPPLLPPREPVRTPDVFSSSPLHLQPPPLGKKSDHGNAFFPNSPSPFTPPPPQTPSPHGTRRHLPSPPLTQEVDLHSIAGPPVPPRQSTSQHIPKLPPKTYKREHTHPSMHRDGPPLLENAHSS

SMILES	IC50 [nM]
C[C@@H](NC(=O)c1ccc(=O)n(-c2cccnc2)n1)c1cccc(C(F)(F)CO)c1F [Example 146, N-[(1R)-1-[3-(1,1-difluoro-2-hydroxy-ethyl)-2-fluoro-phenyl]ethyl]-6-oxo-1-(3-pyridyl)pyridazine-3-carboxamide]	< 1000
COc1ccc(F)c(-n2nc(C(=O)N[C@H](C)c3cc(N)cc(C(F)(F)F)c3)ccc2=O)c1 [Example 183, N-[(1R)-1-[3-amino-5-(trifluoromethyl)phenyl]ethyl]-1-(2-fluoro-5-methoxy-phenyl)-6-oxo-pyridazine-3-carboxamide]	< 1000

Second part, the compound after the results:

IC50 [nM]	SMILES
< 1000	C[C@@H](NC(=O)c1ccc(=O)n(-c2ccc(F)cc2F)n1)c1cccc(C(F)(F)CO)c1F [Example 352, N-[(1R)-1-[3-(1,1-difluoro-2-hydroxy-ethyl)-2-fluoro-phenyl]ethyl]-1-(2,4-difluorophenyl)-6-oxo-pyridazine-3-carboxamide]
< 1000	C[C@@H](NC(=O)c1cc(N)c(=O)n(-c2ccccc2)n1)c1cc(N)cc(C(F)(F)F)c1 [Example 213, 5-amino-N-[(1R)-1-[3-amino-5-(trifluoromethyl)phenyl]ethyl]-6-oxo-1-phenyl-pyridazine-3-carboxamide]
< 1000	C[C@@H](NC(=O)c1nn(-c2ccccc2)c(=O)cc1-c1ccccc1)c1cc(N)cc(C(F)(F)F)c1 [Example 368, N-[(1R)-1-[3-amino-5-(trifluoromethyl)phenyl]ethyl]-6-oxo-1,4-diphenyl-pyridazine-3-carboxamide]
< 1000	C[C@@H](NC(=O)c1ccc(=O)n(-c2cccc(-c3cnnn3C)c2F)n1)c1cc(N)cc(C(F)(F)F)c1 [Example 359, N-[(1R)-1-[3-amino-5-(trifluoromethyl)phenyl]ethyl]-1-[2-fluoro-3-(3-methyltriazol-4-yl)phenyl]-6-oxo-pyridazine-3-carboxamide]
< 1000	C[C@@H](NC(=O)c1ccc(=O)n(CCF)n1)c1cc(N)cc(C(F)(F)F)c1 [Example 226, N-[(1R)-1-[3-amino-5-(trifluoromethyl)phenyl]ethyl]-1-(2-fluoroethyl)-6-oxo-pyridazine-3-carboxamide]
< 1000	C[C@@H](NC(=O)c1ccc(=O)n(Cc2ccccn2)n1)c1cc(N)cc(C(F)(F)F)c1 [Example 225, N-[(1R)-1-[3-amino-5-(trifluoromethyl)phenyl]ethyl]-6-oxo-1-(2-pyridylmethyl)pyridazine-3-carboxamide]
< 1000	COc1ccc(-n2nc(C(=O)N[C@H](C)c3cccc(C(F)(F)CO)c3F)ccc2=O)cc1C(=O)N(C)C [Example 206, N-[(1R)-1-[3-(1,1-difluoro-2-hydroxy-ethyl)-2-fluoro-phenyl]ethyl]-1-[3-(dimethylcarbamoyl)-4-methoxy-phenyl]-6-oxo-pyridazine-3-carboxamide]
